The values that follow come from ChEMBL document CHEMBL1138450, “Carbonic anhydrase activators: activation of human isozymes I, II and IX with phenylsulfonylhydrazido l-histidine derivatives” (Bioorg Med Chem Lett, 2009).

Each structure is given as a SMILES string.

The target in test [1] is Carbonic anhydrase 2 (Homo sapiens) (UniProt P00918). The test is described as follows: Activation of human recombinant CA2 by stopped flow CO2 hydration assay.
The target in test [2] is Carbonic anhydrase 9 (Homo sapiens) (UniProt Q16790). Nature of the test: Activation of human recombinant CA9 catalytic domain by stopped flow CO2 hydration assay.
Test [3] concerns the target Carbonic anhydrase 1 (Homo sapiens) (UniProt P00915). The test is described as follows: Activation of human recombinant CA1 by stopped flow CO2 hydration assay.

Chain of Carbonic anhydrase 1 (Homo sapiens) (P00915 2-261 limits assumed): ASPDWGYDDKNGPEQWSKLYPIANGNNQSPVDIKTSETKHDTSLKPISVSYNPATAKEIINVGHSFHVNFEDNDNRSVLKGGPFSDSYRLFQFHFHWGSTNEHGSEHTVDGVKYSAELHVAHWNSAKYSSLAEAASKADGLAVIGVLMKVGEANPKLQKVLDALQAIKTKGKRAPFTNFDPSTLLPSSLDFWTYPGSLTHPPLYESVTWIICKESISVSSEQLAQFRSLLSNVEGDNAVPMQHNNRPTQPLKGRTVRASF

In the case of `N[C@@H](Cc1c[nH]cn1)C(=O)NNS(=O)(=O)c1ccc(-c2ccccc2)cc1`, the KA in test [1] is 51.7 µM; in test [2] it was 28.5 µM; in test [3] it was 33.1 µM.

Turning to `COc1ccc(S(=O)(=O)NNC(=O)[C@@H](N)Cc2c[nH]cn2)cc1`, the KA in test [1] amounted to 38 µM; in test [2], 27.4 µM; in test [3] it was 44.8 µM.

For `N[C@@H](Cc1c[nH]cn1)C(=O)NNS(=O)(=O)c1c(F)c(F)c(F)c(F)c1F`, the figures for the KA in test [1], in test [2] and in test [3] were 50.2 µM, 30.2 µM and 42.5 µM, respectively.

Take `N[C@@H](Cc1c[nH]cn1)C(=O)NNS(=O)(=O)c1ccc2ccccc2c1`: the KA came out at 18 µM in test [1], 24.1 µM in test [2] and 63.8 µM in test [3].

For the compound `Cc1ccc(S(=O)(=O)NNC(=O)[C@@H](N)Cc2c[nH]cn2)cc1`, the values for the KA in test [1], in test [2] and in test [3] were 25 µM, 18.1 µM and 46.8 µM, respectively.

As to `CC(C)(C)c1ccc(S(=O)(=O)NNC(=O)[C@@H](N)Cc2c[nH]cn2)cc1`, the KA in test [1] was determined as 45.2 µM; in test [2] it was 29.8 µM; in test [3] it was 78.9 µM.

Consider `N[C@@H](Cc1c[nH]cn1)C(=O)NNS(=O)(=O)c1ccc(Cl)cc1`, for which the KA in test [1] came out at 6.53 µM; in test [2], 35.4 µM; in test [3] it was 70.1 µM.

`N[C@@H](Cc1c[nH]cn1)C(=O)NNS(=O)(=O)c1ccc(C(F)(F)F)cc1`: the KA in test [1] is 49.5 µM; in test [2], 22.4 µM; in test [3], 38.9 µM.

Turning to `N#Cc1ccc(S(=O)(=O)NNC(=O)[C@@H](N)Cc2c[nH]cn2)cc1`, the KA in test [1] was determined as 28.7 µM; in test [2], 17.8 µM; in test [3], 40.3 µM.

For the compound `N[C@@H](Cc1c[nH]cn1)C(=O)NNS(=O)(=O)c1ccc(Br)cc1`, the results for the KA in test [1], in test [2] and in test [3] were 19.6 µM, 13.8 µM and 55.7 µM, respectively.

As for `N[C@@H](Cc1c[nH]cn1)C(=O)NNS(=O)(=O)c1ccc(F)cc1`, the KA is 44.8 µM in test [1], 19.5 µM in test [2] and 63.4 µM in test [3].

For `N[C@@H](Cc1c[nH]cn1)C(=O)NNS(=O)(=O)c1ccc(I)cc1`, the values for the KA in test [1], in test [2] and in test [3] were 0.21 µM, 14.1 µM and 76.3 µM, respectively.

In the case of `N[C@@H](Cc1c[nH]cn1)C(=O)NNS(=O)(=O)c1ccc([N+](=O)[O-])cc1`, the values for the KA in test [1], in test [2] and in test [3] were 45.6 µM, 30.5 µM and 54.7 µM, respectively.
